From US20230331652A1, “TRANS-CYCLOOCTENES WITH HIGH REACTIVITY AND FAVORABLE PHYSIOCHEMICAL PROPERTIES” (University of Delaware, priority 2020, published 2023)

Experiments:
[1] = Stopped-flow kinetics of the Diels-Alder reaction with tetrazine 20; assay type: physicochemical; conditions: for Kobs: 95:5 PBS/MeOH, in s-1 (unit assumed)
Description: The kinetics for the reaction of a-TCO derivative 14 toward a 3,6-dipyridyl-s-tetrazinyl succinamic acid derivative 20 were measured by stopped flow kinetics at 25° C. in 95:5 PBS:MeOH (FIG. 4A).
Stopped-flow kinetics measurements were performed on a SX18MV-R stopped-flow spectrophotometer (Applied Photophysics Ltd.) with temperature control (25° C.).
The reaction between 5-ax-hydroxy-5-eq-(2-hydroxyethyl)-trans-cyclooctene 14 and 3,6-dipyridyl-s-tetrazine-mono-succinamic acid 20 was monitored by a SX18MV-R stopped-flow spectrophotometer (Applied Photophysics Ltd.) at 325 nm by measuring the exponential decay of tetrazine under pseudo-first order conditions. Solutions of 14 (0.98, 1.46, 1.95, and 2.63 mM in 9:1 PBS/MeOH) and tetrazine (0.1 mM in PBS) were mixed in the stopped-flow spectrophotometer in equal volumes resulting in final concentrations of 0.49 mM, 0.73 mM, 0.97 mM, and 1.31 mM of 14 and 0.05 mM of tetrazine in 95:5 PBS/MeOH. Three independent samples were prepared for each TCO concentration and measurements were taken in duplicate every 0.1 ms for 0.1 sat 25° C. The observed rates kobs for each run were determined by nonlinear regression analysis of the data points using Prism software (Version 8.00, GraphPad Software Inc). The average kobs values were plotted against the concentrations of 14 to obtain the bimolecular rate constant k2 from the slope of the plot.
The observed rates (kobs) of 5-ax-hydroxy-5-eq-(2-hydroxyethyl)-trans-cyclooctene 14 (10-30 equivalents) and 3,6-dipyridyl-s-tetrazine-mono-succinamic acid 20 were measured using stopped-flow kinetics. The final concentrations of 14 after injection were (A) 0.49 mM, (B) 0.73 mM, (C) 0.97 mM, and (D) 1.31 mM and the concentration of tetrazine was 0.05 mM in 95:5 PBS/MeOH at 25° C. Duplicate measurements were obtained for three independent samples for each concentration of 14.
The reaction between 5-ax-hydroxy-trans-cyclooctene 4a and 3,6-dipyridyl-s-tetrazine-mono-succinamic acid 20 was monitored by a SX18MV-R stopped-flow spectrophotometer (Applied Photophysics Ltd.) at 325 nm by measuring the exponential decay of tetrazine under pseudo-first order conditions. Solutions of 4a (100, 200, 300, and 400 μM in 9:1 PBS/MeOH) and tetrazine (20 μM in PBS) were mixed in the stopped-flow […] 95:5 PBS/MeOH. Three independent samples were prepared for each TCO concentration and measurements were taken in duplicate every 0.1 ms for 0.2 s at 25° C. The observed rates kobs for each run were determined by nonlinear regression analysis of the data points using Prism software (Version 8.00, GraphPad Software Inc). The average kobs values were plotted against the concentrations of 4a to obtain the bimolecular rate constant k2 from the slope of the plot.
The observed rates (kobs) of 5-ax-hydroxy-trans-cyclooctene 4a (5-20 equivalents) and 3,6-dipyridyl-s-tetrazine-mono-succinamic acid 20 were measured using stopped-flow kinetics. […]

[2] = Stability in phosphate buffered D2O, pD=7.4 (33 mM) by quantitative 1H NMR; assay type: physicochemical
Description: (§1) Phosphate buffered D2O (pD=7.4) was prepared by combining anhydrous sodium dihydrogen phosphate (NaH2PO4, 77.1 mg) and anhydrous disodium hydrogen phosphate (Na2HPO4, 204.4 mg) with 20 mL of D2O to make a 0.1 M solution. The pD was measured on a Fisher Scientific AB15 Plus pH meter and pH values were converted to pD by adding 0.4 units. The pD was adjusted to 7.4 with DCI (35 wt. % in D2O) and NaOD (40 wt. % in D2O) as necessary.
(§2) A solution of 14 (4.3 mg, 25 μmol) in phosphate buffered D2O (750 μL, pD=7.4) was monitored by quantitative ^1H NMR on a 600 MHz instrument to observe the decomposition of the trans-isomer over time. Methyl tert-butyl ether (3.0 μL, 26 μmol) was used as an internal standard. After 1 day, 90% of 14 remained and after 5 days, 39% remained (FIG. 6B). The results were plotted using Prism software (Version 8.00, GraphPad Software Inc). A waterfall plot of the ^1H NMR spectra is provided.
as §2, with “4a (3.2” for “14 (4.3”, “85%” for “90%”, “4a” for “14”, “35%” for “39%”

[3] = Stability in methanol-d4 (35 mM) by quantitative 1H NMR; assay type: physicochemical; conditions: 35 mM in methanol-d4, after 7 days
Description: as §2, with “(4.5” for “(4.3”, “26” for “25”, “methanol-d4” for “phosphate buffered D2O”, “μL)” for “μL, pD=7.4)”, “(3.1” for “(3.0”, “After 1 day, 90% of 14 remained and after 5 days, 39% remained (FIG. 6B).” left out
as §2, with “4a (3.3” for “14 (4.3”, “26” for “25”, “methanol-d4” for “phosphate buffered D2O”, “μL)” for “μL, pD=7.4)”, “(3.1” for “(3.0”, “After 1 day, 90% of 14 remained and after 5 days, 39% remained (FIG. 6B).” left out

[4] = Stability with mercaptoethanol (25 mM) in phosphate buffered D2O, pD=7.4; assay type: physicochemical; conditions: 25 mM mercaptoethanol
Description: as §1
TCO 14 (3.1 mg, 18 μmol) in a solution of mercaptoethanol in phosphate buffered D2O (720 μL, 18 μmol, 25 mM, pD=7.4) was monitored by quantitative 1H NMR on a 600 MHz instrument to observe the decomposition of the trans-isomer over time. Methyl tert-butyl ether (2.1 μL, 18 μmol) was used as an internal standard. After 4 hours, 93% of 14 remained and 49% of 14 remained after 20 hours. (FIG. 6C). The results were plotted using Prism software (Version 8.00, GraphPad Software Inc). A waterfall plot of the ^1H NMR spectra is provided.
TCO 4a (2.3 mg, 18 μmol) in a solution of mercaptoethanol in phosphate buffered D2O (720 μL, 18 μmol, 25 mM, pD=7.4) was monitored by quantitative 1H NMR on a 600 MHz instrument to observe the decomposition of the trans-isomer over time. Methyl tert-butyl ether (2.1 μL, 18 μmol) was used as an internal standard. After 4 hours, 89% of 4a and 49% of 4a remained after 20 hours. (FIG. 6C). The results were plotted using Prism software (Version 8.00, GraphPad Software Inc). A waterfall plot of the ^1H NMR spectra is provided.

[5] = tested on: HeLa cells; assay: TAMRA-TCO comparative washout assay; assay type: cell-based; conditions: 5 μM, 30 min incubation
Description: While TCO-derivatives offer rapid labeling kinetics, a consideration for labeling by fluorophore-tagged TCOs has been the background fluorescence due to non-covalent cellular binding that can be ameliorated only by extended washout times. More hydrophilic oxo- and dioxo-trans-cyclooctenes with backbone oxygens offer improvements, but are difficult to synthesize and, for dioxo-TCO, display reduced Diels-Alder kinetics. As shown in FIGS. 5A-5C, the fluorescent conjugates TAM RA-TCO, TAMRA-oxo-TCO and TAMRA-a-TCO were prepared and compared their cellular washout times to unconjugated TAMRA. Thus, HeLa cells were incubated for 30 min with TAMRA-dyes, and cells were initially washed three times with DPBS, and then cell media was exchanged after 10, 40 and 120 minutes. After each wash, cells were imaged live by fluorescence microscopy with illumination at 531 nm and fixed-intensity across all samples. Widefield images of the cells after 3 washes are shown in FIG. 5B; images after the earlier and later washings are shown in FIG. 8. Background fluorescence was quantified by dividing total fluorescence by the number of cells in each image (FIG. 5C).
HeLa cells were seeded at 5×10^3 cells per well in a poly-L-lysine (0.1 mg/mL) coated 48-well plate and allowed to grow for 48 hours in Dulbecco's modified eagle medium (DMEM, Life Technologies) supplemented with 5% FBS (Life Technologies), 1 mM L-glutamine, and 1% penicillin/streptomycin (Life Technologies). Cells were then incubated with media containing 5 μM of TAMRA-TCO, TAMRA-oxo-TCO, or TAMRA-a-TCO 12 (1 mM stock solutions in DMSO, diluted twice into media) for 30 mins at 37° C. All wells were washed three times with DPBS before adding fresh media. Cells were imaged after 2 DPBS washes and again after the 3rd DPBS wash, then incubated for additional time intervals: 10 minutes, 40 minutes, and 2 hour. At each time point, the media was removed from the designated wells and replaced with fresh media before imaging. Images were taken with an EVOS M7000 and all images were taken with the same laser power and gain. Fluorescence intensity was calculated for each sample in 3 replicates using ImageJ and the fluorescence data was normalized with the cell count of each image.

Structure (SMILES)	Kobs ([1]; A (0.49 mM) of 14, 0.05 mM tetrazine, 25° C.)	Kobs ([1]; B (0.73 mM) of 14, 0.05 mM tetrazine, 25° C.)	Kobs ([1]; C (0.97 mM) of 14, 0.05 mM tetrazine, 25° C.)	Kobs ([1]; D (1.31 mM) of 14, 0.05 mM tetrazine, 25° C.)	reactivity relative to oxo-TCO ([1]; comparison of k2 with oxo-TCO)	reactivity toward 20 relative to 4a ([1]; ratio of k2 versus axial isomer 4a)	reactivity toward 20 relative to 4b ([1]; ratio of k2 versus equatorial isomer 4b) [times]	second-order rate constant k2 ([1]; toward tetrazine 20, stopped flow, 25° C., 95:5 PBS:MeOH)	TCO remaining ([2]; phosphate buffered D2O pD 7.4, 1 day (24 h), room temperature) [%]	TCO remaining ([2]; phosphate buffered D2O pD 7.4, 5 days) [%]	decomposition of the trans-isomer [3]	TCO remaining ([4]; phosphate buffered D2O pD 7.4, 4 hours) [%]	TCO remaining ([4]; phosphate buffered D2O pD 7.4, 20 hours) [%]	background fluorescence after 3 washings ([5]; 3 washes with DPBS)	background fluorescence / washout after 2 hours ([5]; media exchanges up to 2 hours)
OCC[C@]1(O)CC/C=C/CCC1 [Compound 14, 5-ax-Hydroxy-5-eq-(2-hydroxyethyl)-trans-cyclooctene]	76.13	121.4	162.4	200.2	more reactive than oxo-TCO	more than twice as reactive	~7	150,000±8000 M^−1s^−1	90	39	no observable decomposition	93	49		
CN(C)c1ccc2c(-c3ccc(C(=O)NCCCCCNC(=O)OC[C@@H]4CC/C=C/CCO4)cc3C(=O)[O-])c3ccc(=[N+](C)C)cc-3oc2c1 (stereo in doubt) [TAMRA-oxo-TCO, (S,E)-2-(6-(dimethylamino)-3-(dimethyliminio)-3H-xanthen-9-yl)-5-((5-((((3,4,7,8-tetrahydro-2H-oxocin-2-yl)methoxy)carbonyl)amino)pentyl)carbamoyl)benzoate, reference compound]														improved	residual fluorescence
